43 compounds from patent US20220372040A1, “METTL3 MODULATORS” (Accent Therapeutics, Inc., priority 2020, published 2022) can be followed below.

One test has as its target METTL3/METTL14 (Homo sapiens, UniProt Q86U44). Nature of the test: METTL3-14 standard enzyme assay (3H-SAM flashplate scintillation). Type of test: biochemical. Particulars: METTL3/METTL14 2.5 nM, RNA 100 nM, 3H-SAM 100 nM, 30 min. The procedure: METTL3-14 Standard Enzyme Assay
Assays were performed in a 25 μl-volume in 384-well V-bottom polypropylene microplates (Greiner Bio-One, cat. No. 781280) at ambient temperature. Optimized 1× assay buffer was 20 mM HEPES pH 7.5, 50 mM KCl, 250 μM MgCl2, 1 mM DTT, 0.01% Tween, 0.01% BSG, 0.004 U/μl RNAseOUT (cat. No. 10777019, ThermoFisher Scientific, Waltham, Mass.). For compound screening METTL3/METTL14 (final concentration, f.c.=2.5 nM) was added using a Multidrop Combi (ThermoFisher Scientific, Waltham, Mass.) and preincubated for 5 min. Reactions were started by adding 3′ biotinylated RNA (UCUGGACUAAA-biotin) (f.c.=100 nM) and 3H-SAM (f.c.=100 nM) substrates. Reactions proceeded for 30 minutes and were quenched with excess non-radioactive SAM (f.c.=15 μM). The reactions were then transferred to streptavidin-coated flashplates and incubated for 2 hours at 25° C. Following two washing cycles with 0.1% Tween-20, the plates were sealed and read on a TopCount (PerkinElmer, Waltham, Mass.) plate-based scintillation counter. For determination of kinetic parameters, reaction times were optimized so that measurements were taken during the initial velocity phase of the reaction.

In another test the target is PRMT5-MEP50 (Homo sapiens, UniProt O14744). Kind of test: PRMT5 assay (3H-SAM flashplate scintillation). The following applies: PRMT5-MEP50 2.5 nM, histone H4 peptide 100 nM, 3H-SAM 250 nM, 60 min. The format is biochemical. The procedure:
Assays were performed in a 25 μl-volume in 384-well V-bottom polypropylene microplates (Greiner Bio-One, cat. No. 781280) at ambient temperature. Optimized 1× assay buffer was 20 mM Tris-HCl pH 8.0, 1 mM DTT, […]. For compound screening PRMT5-MEP50 (final concentration, f.c.=2.5 nM) was added using a Multidrop Combi (ThermoFisher Scientific, Waltham, Mass.) and preincubated for 5 min. Reactions were started by adding 3′ biotinylated histone H4 peptide acetylated on serine 1 (Ac-[…]-Biotin) (f.c.=100 nM) and 3H-SAM (f.c.=250 nM) substrates. Reactions proceeded for 60 minutes and were quenched with excess non-radioactive SAM (f.c.=15 μM). The reactions were then transferred to streptavidin-coated flashplates and incubated for 2 hours at 25° C. Following two washing cycles with 0.1% Tween-20, the plates were sealed and read on a TopCount (PerkinElmer, Waltham, Mass.) plate-based scintillation counter. For determination of kinetic parameters, reaction times were optimized so that measurements were taken during the initial velocity phase of the reaction.

By IC50 is commonly meant the concentration that inhibits the measured activity by half.

Sequence of PRMT5-MEP50 (O14744 whole entry): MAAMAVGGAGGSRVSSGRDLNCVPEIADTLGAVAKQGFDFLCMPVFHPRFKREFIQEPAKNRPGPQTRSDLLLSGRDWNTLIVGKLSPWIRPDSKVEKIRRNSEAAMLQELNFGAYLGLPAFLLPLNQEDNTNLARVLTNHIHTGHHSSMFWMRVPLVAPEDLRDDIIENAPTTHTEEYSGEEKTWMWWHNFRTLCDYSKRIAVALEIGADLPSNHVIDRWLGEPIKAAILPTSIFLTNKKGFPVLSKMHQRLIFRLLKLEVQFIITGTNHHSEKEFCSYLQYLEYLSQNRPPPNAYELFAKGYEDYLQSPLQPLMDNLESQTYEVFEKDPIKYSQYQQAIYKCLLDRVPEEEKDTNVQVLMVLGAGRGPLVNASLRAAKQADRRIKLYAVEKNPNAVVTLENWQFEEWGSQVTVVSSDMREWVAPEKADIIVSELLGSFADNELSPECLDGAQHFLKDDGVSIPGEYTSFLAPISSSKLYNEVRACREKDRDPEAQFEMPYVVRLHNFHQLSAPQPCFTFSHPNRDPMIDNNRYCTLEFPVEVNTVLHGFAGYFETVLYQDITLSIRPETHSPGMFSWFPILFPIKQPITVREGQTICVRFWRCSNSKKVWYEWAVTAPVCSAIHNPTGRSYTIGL
Sequence of PRMT5-MEP50 (Q9BQA1 whole entry partner): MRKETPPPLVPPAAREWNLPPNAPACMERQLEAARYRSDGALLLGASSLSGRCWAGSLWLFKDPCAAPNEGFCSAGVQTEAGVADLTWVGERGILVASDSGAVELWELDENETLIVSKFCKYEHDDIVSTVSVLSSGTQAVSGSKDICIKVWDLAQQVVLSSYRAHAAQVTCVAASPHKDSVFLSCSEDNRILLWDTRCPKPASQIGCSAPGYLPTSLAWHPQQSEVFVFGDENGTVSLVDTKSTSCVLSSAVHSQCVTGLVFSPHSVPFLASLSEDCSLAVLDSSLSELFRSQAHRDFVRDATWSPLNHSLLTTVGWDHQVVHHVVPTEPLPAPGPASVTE
Sequence of METTL3/METTL14 (Q86U44 whole entry, species assumed): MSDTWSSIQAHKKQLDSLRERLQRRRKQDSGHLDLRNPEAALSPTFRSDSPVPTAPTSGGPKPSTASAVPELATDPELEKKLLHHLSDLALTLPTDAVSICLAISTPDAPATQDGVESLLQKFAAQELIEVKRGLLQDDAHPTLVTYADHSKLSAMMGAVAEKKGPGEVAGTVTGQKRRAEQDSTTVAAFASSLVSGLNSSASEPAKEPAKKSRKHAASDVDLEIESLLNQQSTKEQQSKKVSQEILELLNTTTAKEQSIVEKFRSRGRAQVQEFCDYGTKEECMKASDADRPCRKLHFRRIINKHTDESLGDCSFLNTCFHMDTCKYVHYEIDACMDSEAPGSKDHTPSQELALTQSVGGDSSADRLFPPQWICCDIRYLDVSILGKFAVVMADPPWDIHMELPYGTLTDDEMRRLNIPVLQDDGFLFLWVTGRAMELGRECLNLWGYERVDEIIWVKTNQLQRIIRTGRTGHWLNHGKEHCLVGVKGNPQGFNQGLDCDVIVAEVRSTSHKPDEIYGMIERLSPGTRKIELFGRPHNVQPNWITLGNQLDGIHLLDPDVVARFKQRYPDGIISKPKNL
Sequence of METTL3/METTL14 (Q9HCE5 whole entry partner, species assumed): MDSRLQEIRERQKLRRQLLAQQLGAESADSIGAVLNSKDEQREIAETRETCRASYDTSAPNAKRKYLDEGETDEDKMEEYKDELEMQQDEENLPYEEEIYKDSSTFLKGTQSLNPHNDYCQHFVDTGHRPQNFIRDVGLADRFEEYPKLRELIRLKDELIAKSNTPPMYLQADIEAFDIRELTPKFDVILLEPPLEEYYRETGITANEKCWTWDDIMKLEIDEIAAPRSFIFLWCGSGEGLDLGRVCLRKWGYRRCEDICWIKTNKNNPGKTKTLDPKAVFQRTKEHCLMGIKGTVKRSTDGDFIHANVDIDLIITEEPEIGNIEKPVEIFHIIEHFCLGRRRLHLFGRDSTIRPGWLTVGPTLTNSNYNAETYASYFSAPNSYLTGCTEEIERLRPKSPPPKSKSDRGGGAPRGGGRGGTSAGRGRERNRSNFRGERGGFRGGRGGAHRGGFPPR

Compound `Nc1cc(OCc2cncc(-n3cc([C@@H]4CCCO4)c4c(N)ncnc43)c2)ccc1C(=O)N1CCNCC1` [Compound I-166] had an IC50 against METTL3/METTL14 of 100 to 1000 nM. In the case of `Cn1ccc(-c2cn(-c3cncc(COc4ccc5ccc(N6CCOCC6)nc5c4)c3)c3ncnc(N)c23)n1` [Compound I-196], the IC50 lay in the range of 10 to 100 nM against METTL3/METTL14 and 100 to 1000 nM against PRMT5-MEP50. Take `CN(C)CCNC(=O)c1ccc(OCc2cncc(-n3cc(Br)c4c(N)ncnc43)c2)cc1N` [Compound I-218]: the IC50 against METTL3/METTL14 and at PRMT5-MEP50 was more than 1000 nM throughout. Take `CCc1cc(N(C)C2CC2)c2ccc(OCc3cncc(-n4cc([C@@H]5CCCO5)c5c(N)ncnc54)n3)cc2n1` [Compound I-174]: the figures for the IC50 against METTL3/METTL14 and on PRMT5-MEP50 were 10 to 100 nM and more than 1000 nM, respectively. For `Cn1ccc(-c2cn(-c3cncc(COc4ccc(C(=O)NC5CCOCC5)c(N)c4)c3)c3ncnc(N)c23)n1` [Compound I-187] the same measures were 100 to 1000 nM and more than 1000 nM. Compound `CCNc1ccc2ccc(CCc3cncc(-n4cc(C5CCCO5)c5c(N)ncnc54)c3)cc2n1` (stereo not drawn) [Compound I-157] registered an IC50 at METTL3/METTL14 of 10 to 100 nM.

Turning to `Cn1ccc(-c2cn(-c3cncc(COC(=O)Nc4cccc(Br)n4)c3)c3ncnc(N)c23)n1` [Compound I-223], the IC50 against METTL3/METTL14 and against PRMT5-MEP50 was more than 1000 nM throughout. On to `Cn1ccc(-c2cn(-c3cncc(COc4ccc5ccc(C6CCOCC6)nc5c4)c3)c3ncnc(N)c23)n1` [Compound I-189], for which the figures for the half-maximal inhibitory concentration (IC50) on METTL3/METTL14 and against PRMT5-MEP50 were 100 to 1000 nM and more than 1000 nM, respectively. Regarding `CC(C)c1cc(N)c2ccc(OCc3cncc(-c4c[nH]c5c(N)ncnc45)c3)cc2n1` [Compound I-101], the IC50 on METTL3/METTL14 was less than 10 nM; at PRMT5-MEP50, more than 1000 nM.

For `Nc1ncnc2c1c(C1CCCO1)cn2-c1cncc(COc2cnc3ccc(N4CCC4)nc3c2)c1` (stereo not drawn) [Compound I-207], the IC50 against METTL3/METTL14 and against PRMT5-MEP50 was more than 1000 nM in each case. As to `Cn1ccc(-c2cn(-c3cncc(COc4ccc(CN5CCC(CO)CC5)c(N)c4)c3)c3ncnc(N)c23)n1` [Compound I-200], the IC50 on METTL3/METTL14 was 100 to 1000 nM; against PRMT5-MEP50, more than 1000 nM. For `Cn1ccc(-c2cn(-c3cncc(C[S+]([O-])c4ccc5ccc(N6CCC6)nc5c4)c3)c3ncnc(N)c23)n1` (stereo not drawn) [Compound I-221, 7-[5-({[2-(azetidin-1-yl)quinolin-7-yl]sulfinyl}methyl)pyridin-3-yl]-5-(1-methyl-1H-pyrazol-3-yl)-7H-pyrrolo[2,3-d]pyrimidin-4-amine], in that order: more than 1000 nM and 100 to 1000 nM. As to `Nc1ncnc2c1c([C@@H]1CCCO1)cn2-c1cncc(COc2ccc3ccc(N4CCC4)nc3c2)n1` [Compound I-161], the IC50 at METTL3/METTL14 was less than 10 nM. In the case of `CCc1cc(NCCOC)c2c(F)cc(OCc3cncc(-n4cc(C5CCCO5)c5c(N)ncnc54)n3)cc2n1` (stereo not drawn) [Compound I-172], the IC50 on METTL3/METTL14 and against PRMT5-MEP50 was more than 1000 nM throughout. For the compound `Nc1ncnc2c1c([C@H]1CCCO1)cn2-c1cncc(COc2ccc3ccc(N4CCC4)nc3c2)n1` [Compound I-160], the IC50 against METTL3/METTL14 fell in the range of 10 to 100 nM. As to `CC(=O)NC1CN(c2ccc3ccc(OCc4cncc(-n5cc(-c6ccn(C)n6)c6c(N)ncnc65)c4)cc3n2)C1` [Compound I-202], the IC50 at METTL3/METTL14 was 10 to 100 nM; against PRMT5-MEP50 it was more than 1000 nM.

At METTL3/METTL14, `Nc1ncnc2c1c(CO)cn2-c1cncc(COc2ccc3ccc(N4CCC4)nc3c2)c1` [Compound I-182] showed an IC50 of less than 10 nM.

For the compound `Cn1ccc(-c2cn(-c3cncc(COc4ccc5ccc(N6CCCC6=O)nc5c4)c3)c3ncnc(N)c23)n1` [Compound I-195], the IC50 on METTL3/METTL14 and against PRMT5-MEP50 was more than 1000 nM throughout.

`Cn1ccc(-c2cn(-c3cncc(COc4ccc(C(=O)N5CCC(F)(F)CC5)c(N)c4)c3)c3ncnc(N)c23)n1` [Compound I-186]: the IC50 against METTL3/METTL14 and on PRMT5-MEP50 was more than 1000 nM throughout.

Turning to `CCNc1ccc2ccc(CCc3cncc(-n4cc([C@H]5CCCO5)c5c(N)ncnc54)n3)cc2n1` [Compound I-139], the IC50 against METTL3/METTL14 was 10 to 100 nM. Regarding `Cn1ccc(-c2cn(-c3cncc(COc4ccc5ccc(N6CC7(CCC7)C6)nc5c4)c3)c3ncnc(N)c23)n1` [Compound I-194], the half-inhibitory concentration (IC50) on METTL3/METTL14 is 100 to 1000 nM; at PRMT5-MEP50, more than 1000 nM.

Take `CN1CCN(c2ccc3ccc(OCc4cncc(-n5cc(-c6ccn(C)n6)c6c(N)ncnc65)c4)cc3n2)CC1` [Compound I-204]: the results for the IC50 against METTL3/METTL14 and against PRMT5-MEP50 were 100 to 1000 nM and more than 1000 nM, respectively. For `COc1ccccc1-c1cn(-c2cncc(COc3ccc4ccc(N5CCC5)nc4c3)c2)c2ncncc12` [Compound I-184] the same measures were more than 1000 nM and more than 1000 nM. For `CCc1cc(N2CCC2)nc2cc(F)cc(OCc3cncc(-n4cc(C5CCCO5)c5c(N)ncnc54)c3)c12` (stereo not drawn) [Compound I-198] the same measures were more than 1000 nM and more than 1000 nM. On METTL3/METTL14, `CCc1cc(NCCOC)c2ncc(OCc3cncc(-n4cc([C@H]5CCCO5)c5c(N)ncnc54)c3)cc2n1` [Compound I-151] came in with an IC50 of 10 to 100 nM. On the same count and under the same terms, the result for `CCc1cc(N2CCNCC2)c2ccc(OCc3cncc(-n4cc([C@H]5CCCO5)c5c(N)ncnc54)c3)cc2n1` [Compound I-148] reads 10 to 100 nM. For the compound `C[S+]([O-])c1cn(-c2cncc(COc3ccc4ccc(N5CCC5)nc4c3)c2)c2ncnc(N)c12` (stereo not drawn) [Compound I-173], the figures for the IC50 on METTL3/METTL14 and against PRMT5-MEP50 were 100 to 1000 nM and more than 1000 nM, respectively. On METTL3/METTL14, `CCc1cc(C)c2ccc(OCc3cncc(-n4cc([C@@H]5CCCO5)c5c(N)ncnc54)c3)cc2n1` [Compound I-168] returned an IC50 of 10 to 100 nM.

Take `Nc1ncnc2c1ccn2-c1csc(COc2ccc3ccc(N4CCCC4)nc3c2)n1` [Compound I-54]: the IC50 is 100 to 1000 nM on METTL3/METTL14 and more than 1000 nM against PRMT5-MEP50. Consider `CCc1cc(NCCOC)c2c(F)cc(OCc3cncc(-n4cc([C@H]5CCCO5)c5c(N)ncnc54)c3)cc2n1` [Compound I-163], for which, on METTL3/METTL14, the half-inhibitory concentration (IC50) is 10 to 100 nM. `CC(C)c1cc(N)c2ccc(CCc3cncc(-n4cc(C5CCCC5)c5c(N)ncnc54)c3)cc2n1` [Compound I-130] displayed an IC50 on METTL3/METTL14 of 10 to 100 nM.

Regarding `Nc1cc(OCc2cncc(-n3ccc4c(N)ncnc43)c2)ccc1C(=O)N1CCNCC1` [Compound I-215], the IC50 against METTL3/METTL14 and against PRMT5-MEP50 was more than 1000 nM in each case. Turning to `Cn1ccc(-c2cn(-c3cncc(COc4cc(F)ccc4C(=O)NC4CCOCC4)c3)c3ncnc(N)c23)n1` [Compound I-181], the IC50 against METTL3/METTL14 and at PRMT5-MEP50 was more than 1000 nM throughout.

In the case of `CN(C)CCNC(=O)c1ccc(OCc2cncc(-n3ccc4c(N)ncnc43)c2)cc1N` [Compound I-216], the IC50 on METTL3/METTL14 and at PRMT5-MEP50 was more than 1000 nM in each case.

Take `CN(CCO)C(=O)c1ccc(OCc2cncc(-n3cc(-c4ccn(C)n4)c4c(N)ncnc43)c2)cc1N` [Compound I-209]: the IC50 against METTL3/METTL14 and on PRMT5-MEP50 was more than 1000 nM throughout. Consider `COCCN(C)C(=O)c1ccc(OCc2cncc(-n3cc(-c4ccn(C)n4)c4c(N)ncnc43)c2)cc1N` [Compound I-191], for which the IC50 on METTL3/METTL14 and against PRMT5-MEP50 was more than 1000 nM in each case.

With `Cn1ccc(-c2cn(-c3cncc(CSc4ccc5ccc(N6CCC6)nc5c4)c3)c3ncnc(N)c23)n1` [Compound I-219, 7-[5-({[2-(azetidin-1-yl)quinolin-7-yl]sulfanyl}methyl)pyridin-3-yl]-5-(1-methyl-1H-pyrazol-3-yl)-7H-pyrrolo[2,3-d]pyrimidin-4-amine], the IC50 against METTL3/METTL14 was less than 10 nM; against PRMT5-MEP50, more than 1000 nM. With `CCc1cc(NCCOC)c2c(F)cc(OCc3cncc(-n4cc([C@@H]5CCCO5)c5c(N)ncnc54)c3)cc2n1` [Compound I-164], on METTL3/METTL14, the IC50 was in the range of 10 to 100 nM. On the same count and under the same terms, as for `CC(C)c1cc(N)c2ccc(CCc3cncc(-n4ccc5c(N)ncnc54)c3)cc2n1` [Compound I-129], the figure is 10 to 100 nM; as for `CCc1cc(NC(C)=O)c2ccc(OCc3cncc(-n4cc([C@@H]5CCCO5)c5c(N)ncnc54)c3)cc2n1` [Compound I-165], 10 to 100 nM.

In the case of `Nc1ncnc2c1c(Cl)cn2-c1cccc(COc2ccc3ccc(N4CCCC4)nc3c2)c1` [Compound I-63], the IC50 against METTL3/METTL14 was more than 1000 nM.

`CCc1cc(NCCOC)c2ccc(OCc3cncc(-n4cc([C@H]5CCCO5)c5c(N)ncnc54)c3)cc2n1` [Compound I-133]: the IC50 at METTL3/METTL14 lay within 10 to 100 nM. Turning to `CCNc1ccc2ccc(CCc3cncc(-n4cc([C@@H]5CCCO5)c5c(N)ncnc54)n3)cc2n1` [Compound I-140], the IC50 against METTL3/METTL14 is less than 10 nM.
